This note sets out measurements from ChEMBL document CHEMBL1201862, “PubChem BioAssay data set” (2004).

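96-well plates; 48 h exposure; 5 concentrations. Endpoints by linear interpolation between flanking doses. Not reached: highest tested concentration assigned. Abbreviation: GI50, concentration required for 50% inhibition of growth.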 The source made the active and inactive calls. No stated cut-off is given here; in the data, active = GI50 up to about 1.1 µM and inactive = higher.

Among the test systems are SNB-19; MOLT-4; OVCAR-4; SK-MEL-28; MDA-MB-231; HCT-116; SR; UACC-257; HCC 2998; U-251; NCI/ADR-RES; T47D; HL-60; EKVX; DU-145; TK-10; SF-539; Malme-3M; SK-MEL-5; SF-295.
Common to all, as to assay: DTP human tumour cell line panel, 48 h

For `Cc1ccc(N/N=C2\C3=C(CCC(C)(C)O3)C(=O)c3ccccc32)cc1`, the GI50 with SNB-19 is 20.8 µM (inactive); with MOLT-4, 28.8 µM (inactive); in the test with OVCAR-4, 18.2 µM (inactive); in the test with SK-MEL-28 it was 21.9 µM (inactive); with MDA-MB-231, 56.1 µM (inactive); in the test with HCT-116, 21.3 µM (inactive). The GI50 in the test with SR is 16.5 µM (inactive); in the test with UACC-257, 11 µM (inactive); in the test with HCC 2998, 19.7 µM (inactive); in the test on U-251, 37.5 µM (inactive); in the test with NCI/ADR-RES it was 25.6 µM (inactive); in the test on T47D, 18.2 µM (inactive). Besides, the GI50 with HL-60 was 15.2 µM (inactive); in the test with EKVX, 25.5 µM (inactive); in the test on DU-145, 12.4 µM (inactive); in the test on TK-10, 26.8 µM (inactive); in the test on SF-539, 39.3 µM (inactive); in the test on Malme-3M, 9.16 µM (inactive). Further, the GI50 with SK-MEL-5 was 4.17 µM (inactive); with SF-295 it was 14.7 µM (inactive).
As for `CN1CCN(Cc2ccccc2)CC1CC#N` (stereo not given), the GI50 with SNB-19, with MOLT-4, in the test on OVCAR-4, with SK-MEL-28, with MDA-MB-231 and in the test on HCT-116 was > 100 µM (inactive) in each case. For the same compound, the GI50 with SR, in the test with UACC-257, in the test on HCC 2998, in the test on U-251, in the test with NCI/ADR-RES and in the test on T47D was > 100 µM (inactive) throughout. Further, the GI50 in the test with HL-60, in the test on EKVX, in the test with DU-145, with TK-10, in the test on SF-539 and with Malme-3M was > 100 µM (inactive) each time. Moreover, the GI50 in the test on SK-MEL-5 and with SF-295 was > 100 µM (inactive) each time.
For the compound `Nc1ccc2nc(-c3ccccn3)c(-c3ccccn3)nc2c1`, the GI50 in the test with SNB-19, in the test with MOLT-4, with OVCAR-4, with SK-MEL-28, in the test on MDA-MB-231 and in the test with HCT-116 was > 100 µM (inactive) throughout. For the same compound, the GI50 in the test on SR, with UACC-257, in the test on HCC 2998, with U-251, in the test on NCI/ADR-RES and with T47D was > 100 µM (inactive) each time. Moreover, the GI50 with HL-60, in the test with EKVX, in the test on DU-145, in the test with TK-10, in the test with SF-539 and in the test with Malme-3M was > 100 µM (inactive) in each case. Further, the GI50 in the test with SK-MEL-5 and in the test with SF-295 was > 100 µM (inactive) each time.
Turning to `CC(C)=CCC[C@@H](C)C1=C(O)C(=O)C(C)=C(Nc2ccccc2I)C1=O`, the GI50 is 25.4 µM (inactive) in the test with SNB-19; 2.22 µM (inactive) with MOLT-4; 5.01 µM (inactive) in the test with OVCAR-4; 18.3 µM (inactive) in the test on SK-MEL-28; 23.8 µM (inactive) with MDA-MB-231; 11.8 µM (inactive) with HCT-116. Also, the GI50 with SR was 1.3 µM (inactive); in the test with UACC-257, 16.3 µM (inactive); in the test on HCC 2998, 16.6 µM (inactive); with U-251, 7.01 µM (inactive); in the test with NCI/ADR-RES, 2.28 µM (inactive); with T47D, 8.2 µM (inactive). Besides, the GI50 with HL-60 is 2.19 µM (inactive); in the test with EKVX it was 18.2 µM (inactive); in the test with DU-145, 23.4 µM (inactive); in the test with TK-10, 22.1 µM (inactive); with SF-539 it was 9.23 µM (inactive); with Malme-3M it was 12.2 µM (inactive). The GI50 is 9.79 µM (inactive) in the test on SK-MEL-5 and 4.22 µM (inactive) with SF-295.
For `S=C(NCc1ccccc1)N/N=C/c1ccccn1`, the GI50 in the test with SNB-19 is 7.93 µM (inactive); in the test with MOLT-4 it was 0.0612 µM (active); in the test with OVCAR-4 it was 3.01 µM (inactive); with SK-MEL-28, 5.62 µM (inactive); in the test on MDA-MB-231 it was 1.24 µM (inactive); with HCT-116, 0.34 µM (active). Moreover, the GI50 is 0.29 µM (active) with SR; 2.42 µM (inactive) with UACC-257; 6.31 µM (inactive) with HCC 2998; 2.97 µM (inactive) in the test on U-251; 1.88 µM (inactive) with NCI/ADR-RES; 0.161 µM (active) with T47D. Further, the GI50 was 0.0302 µM (active) in the test on HL-60; 1.82 µM (inactive) in the test with EKVX; 3.08 µM (inactive) in the test on DU-145; 12.9 µM (inactive) with TK-10; 4.6 µM (inactive) in the test on SF-539; 1.45 µM (inactive) in the test on Malme-3M. In addition, the GI50 was 3.52 µM (inactive) with SK-MEL-5 and 1.86 µM (inactive) in the test on SF-295.
As for `Cc1ccc2c(c1)CN(C(=O)CCC(=O)OCc1ccccc1)c1ccc(C)cc1CN2C(=O)CCC(=O)OCc1ccccc1`, the GI50 with SNB-19, with MOLT-4, in the test with OVCAR-4, with SK-MEL-28, in the test on MDA-MB-231 and in the test on HCT-116 was > 100 µM (inactive) throughout. The GI50 in the test on SR, in the test on UACC-257, in the test on HCC 2998, in the test with U-251, in the test with NCI/ADR-RES and in the test with T47D was > 100 µM (inactive) in each case. Further, the GI50 in the test with HL-60 is > 100 µM (inactive); in the test with EKVX it was > 100 µM (inactive); in the test with DU-145, > 100 µM (inactive); with TK-10, > 100 µM (inactive); in the test with SF-539 it was 88.3 µM (inactive); with Malme-3M, > 100 µM (inactive). The GI50 is > 100 µM (inactive) with SK-MEL-5 and 98.6 µM (inactive) with SF-295.
On to `COc1cc(Nc2ccc3c(c2)CCC3)nc(OC)n1`, for which the GI50 with SNB-19 was 43.6 µM (inactive); with MOLT-4, 0.0144 µM (active); with OVCAR-4, 33.3 µM (inactive); in the test on SK-MEL-28 it was > 100 µM (inactive); with MDA-MB-231, 38.5 µM (inactive); in the test on HCT-116, 38.2 µM (inactive). For the same compound, the GI50 in the test on SR is 20.5 µM (inactive); in the test with UACC-257 it was 44.4 µM (inactive); with HCC 2998 it was 29.7 µM (inactive); in the test on U-251 it was > 100 µM (inactive); in the test on NCI/ADR-RES, 23.1 µM (inactive); with T47D, 26.4 µM (inactive). Moreover, the GI50 in the test on HL-60 was 29.6 µM (inactive); in the test with EKVX, 17.1 µM (inactive); with DU-145, 53 µM (inactive); with TK-10, 28.2 µM (inactive); in the test on SF-539 it was 38.9 µM (inactive); in the test with Malme-3M, 32.1 µM (inactive). The GI50 with SK-MEL-5 is 23.9 µM (inactive); in the test on SF-295, 29.6 µM (inactive).
